# Data published in patent US20040014215A1, “Synchronised arabidopsis cell suspensions and uses thereof” (priority 2000, published 2004).
# Tested on: Arabidopsis cell suspension culture MM1
# Test: Aphidicolin (4.16 μg/ml, 21.5 hrs) block/release of MM1: proportion of G1, S and G2 cells by flow cytometry
# Format: cell-based, Arabidopsis thaliana
# Description: Arabidopsis cell suspension culture MM1 (DSM 13563) was used for synchronisation experiments. The suspension culture was maintained by sub-culturing weekly 10 ml into 200 ml of fresh MSS-medium (MS-salt, 3% sucrose, 0.5 mg/l NAA, 0.05 mg/l kinetin) which is cultured in 500 ml narrow neck Erlenmeyer flasks, of which the opening is covered with double layer of aluminium foil and loosely covered with Saran wrap and which are placed on a GYROTORY® Shaker (New Brunswick Scientific). The cell suspension culture was grown under continuous light conditions (24 hrs a day); Philips lamps were used with the specification TLD HF 50W/840; light level is in average 1300 Lux and the cell suspension culture is rotated at 120 rpm at a temperature varying between 23-25° C. To arrest cells reversibly in late G1/early S-phase, cells were blocked with aphidicolin according to Nagata et al. 1992 (with slight modifications), 40 ml of an early stationary phase cell suspension culture was subcultured into 200 ml MSS-medium, 4.16 μg/ml aphidicolin was added to block cells at the end of G1/early S-phase, and the culture was incubated at 23° C., 120 rpm in the conditions as described above for MM1, for a period of 21.5 hrs. To remove aphidicolin, cells were washed through a nylon mesh (mesh size 47 μm) with 11 MSS-medium by vigorously shaking and resuspended in MSS-medium. The cells were vigorously shaken, for a washing time of about 14 min, and then centrifuged at 150Orpm for 1 min (387 rcf) with the brake switched off.
# The level of synchronicity of the Arabidopsis cell suspension culture MM1 was analysed by flow cytometry. The cell pellet from 5 ml of cell suspension culture was frozen in liquid nitrogen. To analyse the DNA content, the High Resolution Kit for Plant ploidy analysis (Type P) (Partec, Cat. No. 06-5-4004) was used, containing solution A (to release cell nuclei) and solution B (to stain DNA with DAPI). A sample of the frozen cell pellet was transferred into a small petri-dish (5 cm diameter), 150 μl of solution A was added, and the sample was carefully chopped with vertical motion of a sharp razor blade. An additional 150 μl of solution A was added, the cell suspension pipetted up and down for several time before leaving for approximately 2 min at RT. The released cell nuclei were filtered through a 50 μm nylon mesh (Partec, CellTrics 50 μm, Cat. No. 06-4-2317) and 1 ml of solution B was added to the filtrate. On average 8200 particles were counted with a flow cytometer (PASIII; Partec GmbH, Germany), using HBO lamp excitation (Partec, mercury lamp HBO 100 long life, 100W) and detection of emission using a blue filter. Cell cycle phases were analysed using Multicycle for Windows (Phoenix Flow Systems, San Diego, Calif.). Flow cytometry results are not corrected for the mitotic cells (which are not measured by this method).
structure (smiles),measurement,setting,value
C[C@@]1(CO)[C@H](O)CC[C@@]2(C)[C@H]1CC[C@H]1C[C@@H]3C[C@@]12CC[C@]3(O)CO [aphidicolin],G1 (%) MM1,0 h after aphidicolin removal,50.6%
same,G2 (%) MM1,0 h after aphidicolin removal,19.3%
same,S (%) MM1,0 h after aphidicolin removal,30.1%
same,G1 (%) MM1,1 h after aphidicolin removal,23.7%
same,G2 (%) MM1,1 h after aphidicolin removal,11.4%
same,S (%) MM1,1 h after aphidicolin removal,64.9%
same,G1 (%) MM1,2 h after aphidicolin removal,23.8%
same,G2 (%) MM1,2 h after aphidicolin removal,11.4%
same,S (%) MM1,2 h after aphidicolin removal,64.8%
same,G1 (%) MM1,3 h after aphidicolin removal,27.2%
same,G2 (%) MM1,3 h after aphidicolin removal,10.4%
same,S (%) MM1,3 h after aphidicolin removal,62.5%
same,G1 (%) MM1,4 h after aphidicolin removal,23.2%
same,G2 (%) MM1,4 h after aphidicolin removal,44.8%
same,S (%) MM1,4 h after aphidicolin removal,32%
same,G1 (%) MM1,5 h after aphidicolin removal,19.9%
same,G2 (%) MM1,5 h after aphidicolin removal,63.8%
same,S (%) MM1,5 h after aphidicolin removal,16.3%
same,G1 (%) MM1,6 h after aphidicolin removal,16.1%
same,G2 (%) MM1,6 h after aphidicolin removal,83.9%
same,S (%) MM1,6 h after aphidicolin removal,0%
same,G1 (%) MM1,7 h after aphidicolin removal,13.8%
same,G2 (%) MM1,7 h after aphidicolin removal,85.7%
same,S (%) MM1,7 h after aphidicolin removal,0.5%
same,G1 (%) MM1,8 h after aphidicolin removal,10.9%
same,G2 (%) MM1,8 h after aphidicolin removal,88.8%
same,S (%) MM1,8 h after aphidicolin removal,0.3%
same,G1 (%) MM1,9 h after aphidicolin removal,11.1%
same,G2 (%) MM1,9 h after aphidicolin removal,88.9%
same,S (%) MM1,9 h after aphidicolin removal,0%
same,G1 (%) MM1,10 h after aphidicolin removal,10.8%
same,G2 (%) MM1,10 h after aphidicolin removal,89.2%
same,S (%) MM1,10 h after aphidicolin removal,0%
same,G1 (%) MM1,11 h after aphidicolin removal,13.4%
same,G2 (%) MM1,11 h after aphidicolin removal,86.6%
same,S (%) MM1,11 h after aphidicolin removal,0%
same,G1 (%) MM1,12 h after aphidicolin removal,15.1%
same,G2 (%) MM1,12 h after aphidicolin removal,84.1%
same,S (%) MM1,12 h after aphidicolin removal,0.8%
same,G1 (%) MM1,13 h after aphidicolin removal,22.9%
same,G2 (%) MM1,13 h after aphidicolin removal,77.1%
same,S (%) MM1,13 h after aphidicolin removal,0%
same,G1 (%) MM1,14 h after aphidicolin removal,31.5%
same,G2 (%) MM1,14 h after aphidicolin removal,68.5%
same,S (%) MM1,14 h after aphidicolin removal,0%
same,G1 (%) MM1,15 h after aphidicolin removal,38.6%
same,G2 (%) MM1,15 h after aphidicolin removal,61.3%
same,S (%) MM1,15 h after aphidicolin removal,0.2%
same,G1 (%) MM1,16 h after aphidicolin removal,33.4%
same,G2 (%) MM1,16 h after aphidicolin removal,59.6%
same,S (%) MM1,16 h after aphidicolin removal,6.9%
same,G1 (%) MM1,17 h after aphidicolin removal,36.3%
same,G2 (%) MM1,17 h after aphidicolin removal,57.5%
same,S (%) MM1,17 h after aphidicolin removal,6.2%
same,G1 (%) MM1,18 h after aphidicolin removal,35.7%
same,G2 (%) MM1,18 h after aphidicolin removal,56.1%
same,S (%) MM1,18 h after aphidicolin removal,8.2%
same,G1 (%) MM1,19 h after aphidicolin removal,38.4%
same,G2 (%) MM1,19 h after aphidicolin removal,55.6%
same,S (%) MM1,19 h after aphidicolin removal,6%
same,G1 (%) MM1,20 h after aphidicolin removal,41.1%
same,G2 (%) MM1,20 h after aphidicolin removal,48.8%
same,S (%) MM1,20 h after aphidicolin removal,10%
